{"source": "patent US8414989B2", "about": "“Cyclodextrin compositions, articles, and methods” (Cellresin Technologies, LLC, priority 2011, dated 2013)", "format_in_all_cases": "physicochemical", "key": {"[1]": {"experiment": "Example 11: 1-MCP headspace release from UV coating on polyethylene coated paperboard", "settings": "UV coating with 1-MCP/c/α-CD on PE coated paperboard, 5 cm x 5 cm, 250 mL jar, 200 μL water, average", "procedure": "A 20 mL bottle was charged with 9.6 g of UV curable coating formulation (VP 10169/60 MF-2NE, obtained from Verga GmbH of Aschau am Inn, Germany). Then 0.4 g of 1-MCP/c/α-CD (4.7% 1-MCP, obtained from AgroFresh of […], Pa.) was added to the bottle. The bottle was firmly capped and the components mixed by shaking the bottle by hand until the contents appeared to be uniformly dispersed, providing a UV curable mixture.\nA polyethylene coated paperboard was prepared by heat laminating a 30 μm thick polyethylene film to a 20 cm×20 cm section of 600 μm thick solid bleached sulfate (SBS) paperboard (obtained from Graphic Packaging International of_) using a heated vacuum press. A rubber ink roller was used to deliver a thin (nominally 0.3 μm) coating of the UV curable mixture to the laboratory prepared polyethylene coated paperboard, using the technique of Example 2. A paper cutter was used to cut a 20 cm by 10 cm rectangle of the coated portion of the board. The coated rectangle was passed by hand about 10 cm beneath a medium pressure mercury arc lamp operating at 79 watts per cm. After 1.5 seconds exposure to the lamp, the sample was removed. The cured sample was allowed to sit on a laboratory bench overnight, coating side down.\nAfter curing, 5 cm by 5 cm sections were cut from the 20 cm by 10 cm rectangles. Each section was individually placed into a 250 mL jar (tall clear WM SEPTA-JAR™, Fisher Scientific P/N 05-719-452; obtained from Fisher Scientific of Waltham, Mass.) equipped with a TEFLON™ faced septum (Fisher Scientific P/N 14-965-84). Each jar was injected with 200 μL of deionized water. […] Jar headspace was analyzed for 1-MCP at […] time periods (0.17, 0.5, 1, 2, 4 and 7 hours) after the injection of water, using the analytical technique employed in Example 3. The results exemplify that greater amounts of 1-MCP were released into the headspace from the UV coated substrate with increasing time."}, "[2]": {"experiment": "Example 3: 1-MCP headspace release versus wt-% 1-MCP/c/α-CD in UV-cured coating", "settings": "2.5 cm x 10 cm, 250 mL bottle, 20 μL water, 24 hours", "procedure": "A 20 mL bottle was charged with 9.6 g of UV Coating VP 10169/60 MF-2NE (obtained from Verga GmbH of Aschau am Inn, Germany). Then 0.4 g of 1-MCP/α-cyclodextrin complex (4.7% 1-MCP obtained from AgroFresh of Spring House, Pa.) termed “1-MCP/c/α-CD” was added to the bottle. The bottle was then firmly capped and shaken by hand by hand until the blends appear uniformly dispersed, resulting in a 4.0 wt-% 1-MCP/c/α-CD blend. Three additional blends containing 2.0 wt-%, 1.0 wt-% and 0.5 wt-% of 1-MCP/c/α-CD were prepared in the same manner.\nA rubber ink roller was used to deliver a thin (nominally 0.3 μm) coating to a 20 cm by 20 cm polyethylene extrusion coated paper sheet using the technique of Example 2.\nUsing razor blade, 2.5 cm×10 cm rectangles were cut from the coated portion of each of the sheets. Then the coated rectangular sheets were cured using the procedure of Example 2. Each cured, coated rectangle was placed in a 250 mL serum bottle. The bottle was then sealed with TEFLON® faced silicone septa. Then 20 μL of deionized water was injected into each bottle. […] Headspace was analyzed for 1-MCP 24 hours after the injection of water, using the technique employed in Example 2, and employing the 6-point 1-butene calibration curve as described in Example 2. Table 2 and FIG. 2 give the 24-hour average 1-MCP headspace concentration and standard deviation for each of the coated and cured rectangular sheets."}, "[3]": {"experiment": "Example 8: 1-MCP headspace release from cured coating with varying amounts of liquid water", "settings": "4.0 wt-% 1-MCP/c/α-CD coating, 5 cm x 10 cm, 250 mL bottle", "from_the_text": "A 4.0 wt-% 1-MCP/c/α-CD coating blend was made according to the technique of Example 3. A 20 cm by 20 cm polyethylene extrusion coated paper sheet was coated with the mixture using the technique of Example 2. A paper cutter was used to cut nine, 5 cm by 10 cm rectangles from the sheet. The cut, coated rectangles were passed by hand about 10 cm beneath a medium pressure mercury arc lamp operating at 79 watts per cm. After 1.5 seconds exposure to the lamp, the sample was removed. The cured sample was allowed to sit on a laboratory bench overnight coating side down.\nEach cured sample was placed in a 250 mL serum bottle. Each bottle was sealed with a TEFLON® faced silicone septum. The amount of liquid water that would, in vapor form, correspond to 100% relative humidity (RH) at 20° C. (provided at http://hyperphysics.phy-astr.gsu.edu/hbase/kinetic/vappre.html#c) is 17.3 g/m^3, or 17.3 g per 1000 L. The density of water at 20° C. is 0.9982 g/mL. Thus, at 20° C., 4.3 μL, of liquid water added to an enclosed volume of 250 mL and containing no other water will vaporize to give 100% RH. Our laboratory facility temperature was 20° C.±5° C.\nThree of the bottles were injected with 10 μL, of deionized water, three with 20 μL of deionized water, and three with 50 μL of deionized water. […] The headspace of each bottle was analyzed for 1-MCP at 2 hours, 4 hours, 8 hours, 24 hours, and 48 hours after the injection of water, wherein the headspace analysis was conducted using the analytical technique employed in Example 3."}}}
{"smiles": "CC1=CC1", "note": "[1-MCP, 1-methylcyclopropene]", "values": [{"measurement": "Headspace concentration of 1-MCP", "setting": "[1]; 0.17 hours", "value": "0.16 ppm (v/v)"}, {"measurement": "Headspace concentration of 1-MCP", "setting": "[1]; 0.5 hours", "value": "0.63 ppm (v/v)"}, {"measurement": "Headspace concentration of 1-MCP", "setting": "[1]; 1 hour", "value": "1.6 ppm (v/v)"}, {"measurement": "Headspace concentration of 1-MCP", "setting": "[1]; 2 hours", "value": "3.6 ppm (v/v)"}, {"measurement": "Headspace concentration of 1-MCP", "setting": "[1]; 4 hours", "value": "7.3 ppm (v/v)"}, {"measurement": "Headspace concentration of 1-MCP", "setting": "[1]; 7 hours", "value": "12.5 ppm (v/v)"}, {"measurement": "Headspace concentration of 1-MCP, Ave.", "setting": "[2]; 0.5 wt-% 1-MCP/c/α-CD coating", "value": "0.09 ppm (v/v)"}, {"measurement": "Headspace concentration of 1-MCP, Ave.", "setting": "[2]; 1 wt-% 1-MCP/c/α-CD coating", "value": "0.20 ppm (v/v)"}, {"measurement": "Headspace concentration of 1-MCP, Ave.", "setting": "[2]; 2 wt-% 1-MCP/c/α-CD coating", "value": "0.56 ppm (v/v)"}, {"measurement": "Headspace concentration of 1-MCP, Ave.", "setting": "[2]; 4 wt-% 1-MCP/c/α-CD coating", "value": "1.1 ppm (v/v)"}, {"measurement": "Headspace concentration of 1-MCP, average", "setting": "[3]; 10 μL H2O, 2 hr", "value": "1.3 ppm (v/v)"}, {"measurement": "Headspace concentration of 1-MCP, average", "setting": "[3]; 10 μL H2O, 4 hr", "value": "2.5 ppm (v/v)"}, {"measurement": "Headspace concentration of 1-MCP, average", "setting": "[3]; 10 μL H2O, 8 hr", "value": "3.8 ppm (v/v)"}, {"measurement": "Headspace concentration of 1-MCP, average", "setting": "[3]; 10 μL H2O, 24 hr", "value": "7.1 ppm (v/v)"}, {"measurement": "Headspace concentration of 1-MCP, average", "setting": "[3]; 10 μL H2O, 48 hr", "value": "10.0 ppm (v/v)"}, {"measurement": "Headspace concentration of 1-MCP, average", "setting": "[3]; 20 μL H2O, 2 hr", "value": "2.6 ppm (v/v)"}, {"measurement": "Headspace concentration of 1-MCP, average", "setting": "[3]; 20 μL H2O, 4 hr", "value": "5.8 ppm (v/v)"}, {"measurement": "Headspace concentration of 1-MCP, average", "setting": "[3]; 20 μL H2O, 8 hr", "value": "9.2 ppm (v/v)"}, {"measurement": "Headspace concentration of 1-MCP, average", "setting": "[3]; 20 μL H2O, 24 hr", "value": "15.7 ppm (v/v)"}, {"measurement": "Headspace concentration of 1-MCP, average", "setting": "[3]; 20 μL H2O, 48 hr", "value": "20.5 ppm (v/v)"}, {"measurement": "Headspace concentration of 1-MCP, average", "setting": "[3]; 50 μL H2O, 2 hr", "value": "8.7 ppm (v/v)"}, {"measurement": "Headspace concentration of 1-MCP, average", "setting": "[3]; 50 μL H2O, 4 hr", "value": "18.6 ppm (v/v)"}, {"measurement": "Headspace concentration of 1-MCP, average", "setting": "[3]; 50 μL H2O, 8 hr", "value": "30.8 ppm (v/v)"}, {"measurement": "Headspace concentration of 1-MCP, average", "setting": "[3]; 50 μL H2O, 24 hr", "value": "55.3 ppm (v/v)"}, {"measurement": "Headspace concentration of 1-MCP, average", "setting": "[3]; 50 μL H2O, 48 hr", "value": "63.0 ppm (v/v)"}]}
